Read-outs that look alike come from different tables or passages of the source.
What was measured:
[1] = test system: HIV-1 (wildtype IIIB); experiment: microbe, parasite or virus in culture; assay type: cell-based; conditions: dose achieving 50% protection of HIV-1 (IIIB) infected MT-4 cells, MTT, OD 540 nm
Description: (§1) A rapid, sensitive and automated assay procedure was used for the in vitro evaluation of anti-HIV agents. An HIV-1 (wildtype IIIB) transformed T4-cell line, MT-4, which was previously shown (Koyanagi et al., Int. J Cancer, 36, 445-451, 1985) to be highly susceptible to and permissive for HIV infection, served as the target cell line. Inhibition of the HIV-induced cytopathic effect was used as the end point. […] The percent protection achieved by the compound in HIV-infected cells was calculated by the following formula: [formula]
(§2) whereby (ODT)HIV is the optical density measured with a given concentration of the test compound in HIV-infected cells; (ODC)HIV is the optical density measured for the control untreated HIV-infected cells; (ODC)MOCK is the optical density measured for the control untreated mock-infected cells; all optical density values were determined at 540 nm. […] The ratio of CC50 to IC50 was defined as the selectivity index (SI).

[2] = test system: MT-4; experiment: Cytotoxicity in mock-infected MT-4 cells (MTT)
Description: as §1, §2

[3] = Cytotoxicity in mock-infected MT-4 cells (MTT); conditions: human, mock-infected MT-4 cells
Description: as §1, §2

[4] = Human immunodeficiency virus 1, MT4
[5] = concentration reducing absorbance of mock-infected MT-4 control by 50%, MTT

Compound	IC50 [1] [nM]	CC50 [2] [µM]	IC50 [1, 4] [nM]	CC50 [3] [µM]	CC50 [2, 5] [µM]
N#Cc1ccc(Nc2nc(N)nc(Oc3c(Cl)cccc3Cl)n2)cc1 [Compound 1]	3	> 20	–	–	–
Cc1ccc(C)c(Oc2nc(N)nc(Nc3ccc(C#N)cc3)n2)c1 [Compound 2, 4-[[4-amino-6-(2,5-dimethylphenoxy)-1,3,5-triazin-2-yl]amino]benzonitrile]	–	–	3	34.9	–
N#Cc1ccc(Nc2nc(NO)nc(Nc3c(Cl)cccc3Cl)n2)cc1 [Compound 4, 4-[[[6-(2,6-dichlorophenylamino)-4-(hydroxylamino)]-1,3,5-triazin-2-yl]amino]-benzonitrile]	2	8	–	–	–
Cc1cccc(C)c1Nc1nc(NO)nc(Nc2ccc(C#N)cc2)n1 [Compound 5]	2	7.8	–	–	–
Cc1cccc(Cl)c1Nc1nc(N)nc(Nc2ccc(C#N)cc2)n1 [Compound 7, 4-[[4-amino-6-[(2-chloro-6-methylphenyl)amino]-1,3,5-triazin-2-yl]amino]benzonitrile]	–	–	5	49.9	–
Cc1cccc(C(C)C)c1Nc1nc(N)nc(Nc2ccc(C#N)cc2)n1 [Compound 8]	165	9.3	–	–	–
N#Cc1ccc(Nc2nc(N)nc(Nc3c(Cl)cccc3Cl)n2)cc1 [Compound 10]	3	6.1	–	–	–
Cc1cc(C)c(Nc2nc(NO)nc(Nc3ccc(C#N)cc3)n2)c(C)c1 [Compound 11, 4-[[4-(hydroxyamino)-6-[(2,4,6-trimethylphenyl)amino]-1,3,5-triazin-2-yl]amino]-benzonitrile]	–	–	1	6.3	–
CCc1cccc(CC)c1Nc1nc(N)nc(Nc2ccc(C#N)cc2)n1 [Compound 12]	21	30	–	–	–
CC(=O)c1ccc(C)cc1Nc1nc(N)nc(Nc2ccc(C#N)cc2)n1 [Compound 13]	259	> 100	–	–	–
Cc1cc(C)c(Nc2nc(N)nc(Nc3ccc(C#N)cc3)n2)c(C)c1Br [Compound 15]	3	1.7	–	–	–
CCc1cccc(C)c1Nc1nc(N)nc(Nc2ccc(C#N)cc2)n1 [Compound 16, 4-[[4-amino-6-[(2-ethyl-6-methylphenyl)amino]-1,3,5-triazin-2-yl]amino]benzonitrile]	–	–	6	8.1	–
N#Cc1ccc(Nc2nc(N)nc(Nc3c(F)cc(F)cc3Br)n2)cc1 [Compound 17]	3	53.8	–	–	–
N#Cc1ccc(Nc2nc(N)nc(Nc3c(Cl)cc(Cl)cc3Cl)n2)cc1 [Compound 18]	8	45.6	–	–	–
N#Cc1ccc(Nc2nc(N)nc(Sc3c(Cl)cccc3Cl)n2)cc1 [Compound 19, 4-[[4-amino-6-[(2,6-dichlorophenyl)thio]-1,3,5-triazin-2-yl]amino]benzonitrile]	–	–	4	40.6	–
N#Cc1ccc(Nc2nc(NO)nc(Sc3c(Cl)cccc3Cl)n2)cc1 [Compound 20]	3	11.7	–	–	–
N#Cc1ccc(Nc2nc(N)nc(NNc3c(Cl)cc(Cl)cc3Cl)n2)cc1 [Compound 21]	1	27.8	–	–	–
N#Cc1ccc(Nc2nc(N)nc(NNc3c(Cl)cccc3Cl)n2)cc1 [Compound 22]	3	> 100	–	–	–
N#Cc1ccc(Nc2nc(NO)nc(Nc3c(Cl)cc(Cl)cc3Cl)n2)cc1 [Compound 23, 4-[[4-(hydroxyamino)-6-[(2,4,6-trichlorophenyl)amino]-1,3,5-triazin-2-yl]amino]-benzonitrile]	–	–	1	7.6	–

Compound	IC50 [1] [nM]	CC50 [2] [µM]	IC50 [1, 4] [nM]	CC50 [3] [µM]	CC50 [2, 5] [µM]
Cc1ccc(Cl)c(C)c1Nc1nc(N)nc(Nc2ccc(C#N)cc2)n1 [Compound 28]	5	42.8	–	–	–
N#Cc1ccc(Nc2nc(N)nc(Oc3c(Cl)cc(Cl)cc3Cl)n2)cc1 [Compound 30]	2	63.5	–	–	–
Cc1ccc(Cl)c(C)c1Nc1nc(NO)nc(Nc2ccc(C#N)cc2)n1 [Compound 31]	5	9.9	–	–	–
Cc1cc(Cl)cc(Cl)c1Oc1nc(N)nc(Nc2ccc(C#N)cc2)n1 [Compound 34]	1	4.8	–	–	–
N#Cc1ccc(Nc2nc(N)nc(Oc3ccc(Cl)cc3Cl)n2)cc1 [Compound 38]	7	> 100	–	–	–
CC(=O)c1cc(Cl)cc(Cl)c1Oc1nc(N)nc(Nc2ccc(C#N)cc2)n1 [Compound 39]	> 10000	< 10	–	–	–
N#Cc1ccc(Nc2nc(N)nc(Oc3c(Cl)c(Cl)c(Cl)c(Cl)c3Cl)n2)cc1 [Compound 42]	33	> 10	–	–	–
N#Cc1ccc(Nc2nc(N)nc(Oc3c(Cl)ccc(Cl)c3Cl)n2)cc1 [Compound 43]	9	43.9	–	–	–
N#Cc1ccc(Nc2nc(N)nc(Oc3c(F)cc(F)cc3F)n2)cc1 [Compound 44]	5	> 100	–	–	–
N#Cc1ccc(Nc2nc(N)nc(Oc3c(Cl)cc(F)cc3Cl)n2)cc1 [Compound 45]	7	52.9	–	–	–
COc1cccc(OC)c1Oc1nc(N)nc(Nc2ccc(C#N)cc2)n1 [Compound 46]	31	> 100	–	–	–
COc1cc(C#N)ccc1Oc1nc(N)nc(Nc2ccc(C#N)cc2)n1 [Compound 47]	75	> 100	–	–	–
Cc1c(Cl)c(C)c(Br)c(Oc2nc(N)nc(Nc3ccc(C#N)cc3)n2)c1Br [Compound 48]	19	8.7	–	–	–
CC(=O)c1cc(F)cc(F)c1Oc1nc(N)nc(Nc2ccc(C#N)cc2)n1 [Compound 49]	76	> 99.9	–	–	–
Cc1c(Br)c(C)c(Br)c(Oc2nc(N)nc(Nc3ccc(C#N)cc3)n2)c1Br [Compound 50]	59	8.1	–	–	–
Cc1cc(Cl)c(C)c(C)c1Oc1nc(N)nc(Nc2ccc(C#N)cc2)n1 [Compound 52]	3	1.9	–	–	–
Cc1c(C)c(Oc2nc(N)nc(Nc3ccc(C#N)cc3)n2)c(Cl)c(C)c1Cl [Compound 53]	17	2.5	–	–	–
N#Cc1ccc(Nc2nc(N)nc(Sc3ccc(F)cc3Cl)n2)cc1 [Compound 55]	4	> 99.9	–	–	–
N#Cc1ccc(Nc2nc(N)nc(Sc3cc(Cl)c(Cl)cc3Cl)n2)cc1 [Compound 56]	5	62.6	–	–	–

Compound	IC50 [1] [nM]	CC50 [2] [µM]	IC50 [1, 4] [nM]	CC50 [3] [µM]	CC50 [2, 5] [µM]
N#Cc1ccc(Nc2nc(N)nc(Sc3ccc(F)cc3F)n2)cc1 [Compound 57]	15	> 100	–	–	–
Cc1cc(C)c(Sc2nc(N)nc(Nc3ccc(C#N)cc3)n2)c(C)c1 [Compound 58]	3	47.1	–	–	–
Cc1ccc(Sc2nc(N)nc(Nc3ccc(C#N)cc3)n2)c(C)c1 [Compound 59]	2	48.5	–	–	–
Cc1cc(I)cc(C)c1Oc1nc(N)nc(Nc2ccc(C#N)cc2)n1 [Compound 60]	3	45.5	–	–	–
Cc1cc(C)c(Nc2nc(N)nc(Nc3ccc(C#N)cc3)n2)c(C)c1N [Compound 61]	5	94.6	–	–	–
Cc1ccc(Oc2nc(N)nc(Nc3ccc(C#N)cc3)n2)c(C)c1 [Compound 62]	3	51.6	–	–	–
CCc1cc(Br)cc(CC)c1Nc1nc(N)nc(Nc2ccc(C#N)cc2)n1 [Compound 64]	14	46.5	–	–	–
Cc1cc(Nc2nc(N)nc(Nc3ccc(C#N)cc3)n2)c(Cl)cc1F [Compound 66]	96	> 99.9	–	–	–
N#Cc1ccc(Nc2nc(N)nc(Nc3c(F)c(F)c(F)c(F)c3F)n2)cc1 [Compound 67]	111	45.6	–	–	–
COc1cc(OC)c(Nc2nc(N)nc(Nc3ccc(C#N)cc3)n2)c(OC)c1 [Compound 68]	15	63.9	–	–	–
Cc1cc(C)c(N=Nc2nc(N)nc(Nc3ccc(C#N)cc3)n2)c(C)c1 [Compound 69, 4-[[4-amino-6-[(2,4,6-trimethylphenyl)azo]-1,3,5-triazin-2-yl]aamino]benzonitrile]	65	–	–	–	> 99.9
N#Cc1ccc(Nc2nc(N)nc(Nc3c(Cl)cc(C(F)(F)F)cc3Cl)n2)cc1 [Compound 70]	3	15.6	–	–	–
N#Cc1ccc(Nc2nc(N)nc(Nc3c(Br)cc(Br)cc3Br)n2)cc1 [Compound 72]	2	6.5	–	–	–
Cc1cc(Br)c(Nc2nc(Nc3ccc(C#N)cc3)nc(Nc3ccc(C#N)cc3)n2)c(Br)c1 [Compound 74, N,-[6-[(2,6-dibromo-4-methylphenyl)amino]-1,3,5-triazine-2,4-diyl]bis[4-amino-benzonitrile]]	190	7	–	–	–
CC(C)c1cc(Br)c(Nc2nc(Nc3ccc(C#N)cc3)nc(Nc3ccc(C#N)cc3)n2)c(Br)c1 [Compound 75]	378	37.8	–	–	–
Cc1cc(N)cc(C)c1Oc1nc(N)nc(Nc2ccc(C#N)cc2)n1 [Compound 78]	7830	47	–	–	–
N#Cc1ccc(Nc2nc(N)nc(Oc3c(F)c(F)c(O)c(F)c3F)n2)cc1 [Compound 80]	85500	–	–	–	> 85.5
Cc1c(Cl)cc(N)c(Oc2nc(N)nc(Nc3ccc(C#N)cc3)n2)c1Cl [Compound 81]	2680	> 99.1	–	–	–
COC(=O)c1cc(OC)c(OC)c(OC)c1Nc1nc(N)nc(Nc2ccc(C#N)cc2)n1 [Compound 82]	1490	99.6	–	–	–

Reference: US6774235B2, “Trisubstituted 1,3,5-triazine derivatives” (Janssen Pharmaceutica N.V., priority 1998, dated 2004)
